Structures are written as SMILES. Read-outs that look alike come from different tables or passages of the source.

As a reminder, the IC50 is the concentration at which inhibition is half-maximal.

The target of the experiment is human S1P3 receptor (Homo sapiens (Human), UniProt Q99500). The experiment can be described thus: Activation or block of activation of human S1P3 receptor, Ca+2 FLIPR assay. The settings on record: for IC50: read-out: S1P3 IC50. In kind it is cell-based. On the procedure: Compounds were assessed for their ability to activate or block activation of the human S1P3 receptor in T24 cells stably expressing the human S1P3 receptor. Ten thousand cells/well were plated into 384-well poly-D-lysine coated plates one day prior to use. The growth media for the S1P3 receptor expressing cell line was McCoy's 5A medium supplemented with 10% charcoal-treated fetal bovine serum (FBS), 1% antibiotic-antimycotic and 400 μg/ml geneticin. On the day of the experiment, the cells were washed twice with Hank's Balanced Salt Solution supplemented with 20 mM HEPES (HBSS/Hepes buffer). […] Extracellular dye was removed by washing the cell plates four times prior to placing the plates in the FLIPR (Fluorometric Imaging Plate Reader, Molecular Devices). Ligands were diluted in HBSS/Hepes buffer and prepared in 384-well microplates. The positive control, Sphingosine-1-Phosphate (S1P), was diluted in HBSS/Hepes buffer with 4 mg/ml fatty acid free bovine serum albumin. The FLIPR transferred 12.5 μl from the ligand microplate to the cell plate and took fluorescent measurements for 75 seconds, taking readings every second, and then for 2.5 minutes, taking readings every 10 seconds. […] IC50 values were determined through a […] analysis using the Levenburg Marquardt algorithm.

[1] abbreviates: T24 cells stably expressing the human S1P3 receptor, FLIPR Ca+2 response, 0.61 nM to 10,000 nM.
Setting [2] is: T24 cells stably expressing the human S1P3 receptor, value in brackets.

human S1P3 receptor, sequence (Q99500 whole entry): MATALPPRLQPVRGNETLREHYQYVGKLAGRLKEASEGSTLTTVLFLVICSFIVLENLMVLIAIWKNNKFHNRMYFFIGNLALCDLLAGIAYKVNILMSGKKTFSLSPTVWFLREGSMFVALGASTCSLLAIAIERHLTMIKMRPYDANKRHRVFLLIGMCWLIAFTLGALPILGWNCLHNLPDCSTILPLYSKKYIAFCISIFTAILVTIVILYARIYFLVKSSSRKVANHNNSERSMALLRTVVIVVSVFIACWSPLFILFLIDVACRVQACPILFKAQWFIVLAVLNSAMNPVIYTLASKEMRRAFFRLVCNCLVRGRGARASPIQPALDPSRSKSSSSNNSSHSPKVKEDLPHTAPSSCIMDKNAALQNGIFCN

Take `CC[C@H]1COC(c2ccc3c(C(=O)NCc4cncc(F)c4)c(C(C)C)n(Cc4ccccc4)c3c2)=N1` [Compound 73, (S)-1-Benzyl-6-(4-ethyl-4,5-dihydrooxazol-2-yl)-N-((5-fluoropyridin-3-yl)methyl)-2-isopropyl-1H-indole-3-carboxamide]: the IC50 under setting [1] is 35 nM. Moreover, the “S1P3 (% inh)” value under setting [2] was 100%.

With `CC(C)c1c(C(=O)NCc2ccc(F)c(F)c2)c2ccc(C3=N[C@H](C)CO3)cc2n1Cc1ccccc1` [Compound 74, (R)-1-Benzyl-N-(3,4-difluorobenzyl)-2-isopropyl-6-(4-methyl-4,5-dihydrooxazol-2-yl)-1H-indole-3-carboxamide], under setting [1], the 50% inhibitory concentration (IC50) is 49 nM. Besides, under setting [2], the “S1P3 (% inh)” value is listed as 99%.

In the case of `CC[C@H]1COC(c2ccc3c(C(=O)NCc4ccc(F)c(F)c4)c(C(C)C)n(Cc4ccccc4)c3c2)=N1` [Compound 75, (S)-1-Benzyl-N-(3,4-difluorobenzyl)-6-(4-ethyl-4,5-dihydrooxazol-2-yl)-2-isopropyl-1H-indole-3-carboxamide], the half-inhibitory concentration (IC50) under setting [1] came to 17 nM. Moreover, the “S1P3 (% inh)” value under setting [2] amounted to 97%.

With `CC(C)c1c(C(=O)NCc2ccc(F)c(F)c2)c2ccc(C3=N[C@@H](C)CO3)cc2n1Cc1ccccc1` [Compound 76, (S)-1-Benzyl-N-(3,4-difluorobenzyl)-2-isopropyl-6-(4-methyl-4,5-dihydrooxazol-2-yl)-1H-indole-3-carboxamide], the IC50 under setting [1] came to 33 nM. The “S1P3 (% inh)” value under setting [2] came out at 99%.

As to `COC[C@H]1COC(c2ccc3c(C(=O)NCc4ccc(F)c(F)c4)c(C(C)C)n(Cc4ccccc4)c3c2)=N1` [Compound 77, (S)-1-Benzyl-N-(3,4-difluorobenzyl)-2-isopropyl-6-(4-(methoxymethyl)-4,5-dihydrooxazol-2-yl)-1H-indole-3-carboxamide], the IC50 under setting [1] was determined as 46 nM. Under setting [2], the “S1P3 (% inh)” value was 96%.

For the compound `CC[C@H]1COC(c2ccc3c(C(=O)NCc4ccc(F)c(F)c4)c(C(C)C)n(Cc4ccccn4)c3c2)=N1` [Compound 80, (S)—N-(3,4-Difluorobenzyl)-6-(4-ethyl-4,5-dihydrooxazol-2-yl)-2-isopropyl-1-(pyridin-2-ylmethyl)-1H-indole-3-carboxamide], the half-maximal inhibitory concentration (IC50) under setting [1] came to 7 nM. The “S1P3 (% inh)” value under setting [2] is 99%.

Regarding `CC(C)c1c(C(=O)NCc2ccc(F)c(F)c2)c2ccc(C3=N[C@@H](C)CO3)cc2n1Cc1cccnc1` [Compound 82, (S)—N-(3,4-Difluorobenzyl)-2-isopropyl-6-(4-methyl-4,5-dihydrooxazol-2-yl)-1-(pyridin-3-ylmethyl)-1H-indole-3-carboxamide], under setting [1], the half-inhibitory concentration (IC50) turned out to be 44 nM. The “S1P3 (% inh)” value under setting [2] is given as 100%.

As to `CC[C@H]1COC(c2ccc3c(C(=O)NCc4ccc(F)c(F)c4)c(C(C)C)n(Cc4ncco4)c3c2)=N1` [Compound 83, (S)—N-(3,4-Difluorobenzyl)-6-(4-ethyl-4,5-dihydrooxazol-2-yl)-2-isopropyl-1-(oxazol-2-ylmethyl)-1H-indole-3-carboxamide], the concentration for half-maximal inhibition (IC50) under setting [1] is 280 nM. Also, under setting [2], the “S1P3 (% inh)” value is on record as 99%.

As to `CC(C)c1c(C(=O)NCc2cc(F)cc(F)c2)c2ccc(C3=N[C@@H](C)CO3)cc2n1Cc1ccccn1` [Compound 84, (S)—N-(3,5-Difluorobenzyl)-2-isopropyl-6-(4-methyl-4,5-dihydrooxazol-2-yl)-1-(pyridin-2-ylmethyl)-1H-indole-3-carboxamide], under setting [1], the IC50 was 40 nM. Also, under setting [2], the “S1P3 (% inh)” value is 89%.

As for `CC[C@H]1COC(c2ccc3c(C(=O)NCc4cc(F)cc(F)c4)c(C(C)C)n(Cc4ccccn4)c3c2)=N1` [Compound 85, (S)—N-(3,5-Difluorobenzyl)-6-(4-ethyl-4,5-dihydrooxazol-2-yl)-2-isopropyl-1-(pyridin-2-ylmethyl)-1H-indole-3-carboxamide], the IC50 under setting [1] was determined as 18 nM. For the same compound, under setting [2], the “S1P3 (% inh)” value is given as 100%.

Take `CC(C)c1c(C(=O)NCc2ccc(F)cc2)c2ccc(C3=N[C@@H](C)CO3)cc2n1Cc1ccccn1` [Compound 86, (S)—N-(4-Fluorobenzyl)-2-isopropyl-6-(4-methyl-4,5-dihydrooxazol-2-yl)-1-(pyridin-2-ylmethyl)-1H-indole-3-carboxamide]: the IC50 under setting [1] was 48 nM. In addition, the “S1P3 (% inh)” value under setting [2] amounted to 100%.

On to `CC(C)c1c(C(=O)NCc2ccc(F)c(F)c2)c2ccc(-c3nnco3)cc2n1Cc1ccccc1` [Compound 89, 1-Benzyl-N-(3,4-difluorobenzyl)-2-isopropyl-6-(1,3,4-oxadiazol-2-yl)-1H-indole-3-carboxamide], for which the concentration for half-maximal inhibition (IC50) under setting [1] is 59 nM. Besides, the “S1P3 (% inh)” value under setting [2] was determined as 98%.

On to `CC(C)Oc1ccc2c(C(=O)NCc3ccc(F)c(F)c3)c(CN(C)C)n(Cc3ccccn3)c2c1` [Compound 98, N-(3,4-Difluorobenzyl)-2-((dimethylamino)methyl)-6-isopropoxy-1-(pyridin-2-ylmethyl)-1H-indole-3-carboxamide], for which, under setting [1], the half-inhibitory concentration (IC50) amounted to 632 nM. Moreover, under setting [2], the “S1P3 (% inh)” value is given as 100%.

For the compound `CC(C)Oc1ccc2c(C(=O)NCc3ccc(F)c(F)c3)c(C3=NCCO3)n(Cc3ccccn3)c2c1` [Compound 104, N-(3,4-Difluorobenzyl)-2-(4,5-dihydrooxazol-2-yl)-6-isopropoxy-1-(pyridin-2-ylmethyl)-1H-indole-3-carboxamide], the IC50 under setting [1] worked out at 3900 nM. Also, under setting [2], the “S1P3 (% inh)” value is 50%.

As for `CC(C)Oc1ccc2c(C(=O)NCc3ccc(F)c(F)c3)c(C=O)n(Cc3ccccn3)c2c1` [Compound 105, N-(3,4-Difluorobenzyl)-2-formyl-6-isopropoxy-1-(pyridin-2-ylmethyl)-1H-indole-3-carboxamide], the IC50 under setting [1] amounted to 485 nM. Besides, the “S1P3 (% inh)” value under setting [2] is recorded as 98%.

In the case of `CC(C)Oc1ccc2c(C(=O)NCc3ccc(F)c(F)c3)c(CO)n(Cc3ccccn3)c2c1` [Compound 106, N-(3,4-Difluorobenzyl)-2-(hydroxymethyl)-6-isopropoxy-1-(pyridin-2-ylmethyl)-1H-indole-3-carboxamide], the IC50 under setting [1] came to 689 nM. Under setting [2], the “S1P3 (% inh)” value is 96%.

On to `CC(C)Oc1ccc2c(C(=O)NCc3ccc(F)c(F)c3)c(C(C)O)n(Cc3ccccn3)c2c1` (stereo not shown) [Compound 108, N-(3,4-Difluorobenzyl)-2-(1-hydroxyethyl)-6-isopropoxy-1-(pyridin-2-ylmethyl)-1H-indole-3-carboxamide], for which the half-inhibitory concentration (IC50) under setting [1] was 15 nM. In addition, the “S1P3 (% inh)” value under setting [2] is on record as 98%.

Regarding `CC(=O)c1c(C(=O)NCc2ccc(F)c(F)c2)c2ccc(OC(C)C)cc2n1Cc1ccccn1` [Compound 109, 2-Acetyl-N-(3,4-difluorobenzyl)-6-isopropoxy-1-(pyridin-2-ylmethyl)-1H-indole-3-carboxamide], the IC50 under setting [1] stood at 21 nM. The “S1P3 (% inh)” value under setting [2] turned out to be 99%.

Take `CC(C)c1c(C(=O)NCc2ccc(F)c(F)c2)c2ccc([N+](=O)[O-])cc2n1Cc1ccccc1` [Compound 124, 1-Benzyl-N-(3,4-difluorobenzyl)-2-isopropyl-6-nitro-1H-indole-3-carboxamide]: the “S1P3 (% inh)” value is given as 242 nM (90) % and the IC50 was determined as 242 nM.

Turning to `CC(C)c1c(C(=O)NCc2ccc(F)c(F)c2)c2ccc(N)cc2n1Cc1ccccc1` [Compound 125, 6-Amino-1-benzyl-N-(3,4-difluorobenzyl)-2-isopropyl-1H-indole-3-carboxamide], under setting [1], the IC50 was determined as 1700 nM. For the same compound, the “S1P3 (% inh)” value under setting [2] was found to be 90%.

For `CC(C)c1c(C(=O)NCc2ccc(F)c(F)c2)c2ccc(NC3CCOC3)cc2n1Cc1ccccc1` (stereo not shown) [Compound 126, 1-Benzyl-N-(3,4-difluorobenzyl)-2-isopropyl-6-(tetrahydrofuran-3-ylamino)-1H-indole-3-carboxamide], the half-inhibitory concentration (IC50) under setting [1] stood at 177 nM. Further, the “S1P3 (% inh)” value under setting [2] came to 100%.

With `CC(C)C(=O)Nc1ccc2c(C(=O)NCc3ccc(F)c(F)c3)c(C(C)C)n(Cc3ccccc3)c2c1` [Compound 127, 1-Benzyl-N-(3,4-difluorobenzyl)-6-isobutyramido-2-isopropyl-1H-indole-3-carboxamide], the IC50 under setting [1] is 890 nM. Moreover, the “S1P3 (% inh)” value under setting [2] is reported as 97%.

On to `CC(C)c1c(C(=O)NCc2ccc(F)c(F)c2)c2ccc(N3CCCC3=O)cc2n1Cc1ccccc1` [Compound 128, 1-Benzyl-N-(3,4-difluorobenzyl)-2-isopropyl-6-(2-oxopyrrolidin-1-yl)-1H-indole-3-carboxamide], for which the IC50 under setting [1] is 502 nM. For the same compound, under setting [2], the “S1P3 (% inh)” value is 99%.

`CC(C)c1c(C(=O)NCc2ccc(F)c(F)c2)c2ccc(NC3CCCC3)cc2n1Cc1ccccc1` [Compound 130, 1-Benzyl-6-(cyclopentylamino)-N-(3,4-difluorobenzyl)-2-isopropyl-1H-indole-3-carboxamide]: the IC50 under setting [1] was determined as 44 nM. For the same compound, the “S1P3 (% inh)” value under setting [2] is given as 99%.

For the compound `CC(C)c1c(C(=O)NCc2ccc(F)c(F)c2)c2ccc(OCc3ncco3)cc2n1Cc1ccccc1` [Compound 131, 1-Benzyl-N-(3,4-difluorobenzyl)-2-isopropyl-6-(1,3-oxazol-2-ylmethoxy)-1H-indole-3-carboxamide], the IC50 under setting [1] came out at 890 nM. Moreover, under setting [2], the “S1P3 (% inh)” value is listed as 96%.

On to `CC(C)c1c(C(=O)NCc2ccc(F)c(F)c2)c2ccc(OC3CCOCC3)cc2n1Cc1ccccc1` [Compound 133, 1-Benzyl-N-(3,4-difluorobenzyl)-2-isopropyl-6-(tetrahydro-2H-pyran-4-yloxy)-1H-indole-3-carboxamide], for which the “S1P3 (% inh)” value is reported as 36 nM (99) % and the 50% inhibitory concentration (IC50) worked out at 36 nM.

These data come from patent publication US8524917B2, “6-substituted indole-3-carboxylic acid amide compounds having sphingosine-1-phosphate (S1P) receptor antagonist biological activity” (Allergan, Inc., priority 2007, dated 2013).
